Source: patent publication US4650661A, “Enzyme inhibitors” (priority 1982, dated 1987)
Where two headings read alike, the source gives them in different places. One block for each molecule: values may come before it. Non-standard residues stand in square brackets, D forms with d. Residues, ends and D or L forms follow the SMILES beside them. *: point of attachment. Sta = CC(C)C[C@H](N)[C@@H](O)CC(=O)O; Isovaleryl = CC(C)CC(=O)*

What was measured:
acid proteases = settings: cited from earlier work
human renin = molecular target: T1, human renin (Homo sapiens, UniProt P00797); assay: renin inhibition, methods of published European specification; format: biochemical
T1 sequence (P00797 67-406): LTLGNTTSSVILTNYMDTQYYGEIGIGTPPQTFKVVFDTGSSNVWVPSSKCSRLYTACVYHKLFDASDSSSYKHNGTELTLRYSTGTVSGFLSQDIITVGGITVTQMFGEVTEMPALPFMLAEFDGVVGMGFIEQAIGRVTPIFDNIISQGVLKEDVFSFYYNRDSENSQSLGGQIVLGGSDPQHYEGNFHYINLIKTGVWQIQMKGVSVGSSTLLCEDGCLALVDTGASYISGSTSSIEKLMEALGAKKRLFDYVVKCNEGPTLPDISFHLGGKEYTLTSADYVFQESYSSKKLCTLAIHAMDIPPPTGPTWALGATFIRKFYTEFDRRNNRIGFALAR
Text: (§1) This compound is the subject of Example 1 below.

baboon renin = assay: renin inhibition, baboon renin; format: biochemical; settings: preliminary results, read-out: IC50 against baboon renin (preliminary results)
Text: as §1
The following are the fully detailed examples referred to earlier. The activity of H-176 (Example I) has already been given.

Molecule: CC(C)CC(=O)N[C@H](C(=O)N[C@H](C(=O)N[C@@H](CC(C)C)[C@@H](O)CC(=O)N[C@@H](C)C(=O)N[C@@H](CC(C)C)[C@@H](O)CC(=O)O)C(C)C)C(C)C [pepstatin, iso-valeryl-L-valyl-L-valyl-S,S,-statyl-L-alanyl-S,S-statine] (Isovaleryl-VV[Sta]A[Sta]-OH)
inhibition of acid proteases (pepsin, cathepsin D, chymosin, renin) (acid proteases): inhibits acid proteases in general

IC50 (human renin; read-out: IC50 against human renin): 16 nM
Molecule: H-HPFH[Sta]VIH-OH [Example H-176]

IC50 (human renin; preliminary results, read-out: IC50 against human renin (preliminary results)): 9 nM | IC50 (baboon renin): 12 nM
Molecule: H-PHPFH[Sta]VIHK-OH [Example H-189]
